Earlier results as cited in patent US6063370A, “Macromolecular complexes for drug delivery” (The Board of Trustees of the University of Illinois, priority 1998, dated 2000).

Settings: heparin having an Mw of about 6,000

- Bioavailability: 85%
Substance: heparin
